# Laboratory results reported in US4622430A (priority 1982, dated 1986).
# Where two headings read alike, the source gives them in different places.
# What was measured:
# [1] = system: reserpine-induced catalepsy; assay: Antagonism of reserpine-induced catalepsy in the mouse; format: in vivo, Male CD-1 mice; conditions: 0.75 h, read-out: ED50 (dose causing a reduction of the catalepsy score to 50% of the control group score), oral, reserpine 5 mg/kg i.p. 4 h before, scored 45 min after compound
# [2] = Irwin dose-range study/acute toxicity in the mouse; design: species or system Male CD-1 mice; conditions: in vivo; for selectivity ratio: LD50 acute oral toxicity / ED50 reserpine catalepsy, read-out: Therapeutic index (LD50/ED50); for LD50 at 168 h: oral, 7 days observation, method of Horn
# Description: Irwin Dose-Range Study/Acute Toxicity in the Mouse
# The animals were also observed daily for seven days post-dose and any mortalities noted. LD50 values were estimated using the method of Horn (Biometrics, 12, 311 (1956)).
# [3] = system: oxotremorine-induced tremor and salivation; assay: Anti-oxotremorine test in the mouse; conditions: 0-3 scale; for Mean tremor score (± s.e.): vehicle 2,6-2,9; for Mean salivation score (± s.e.): vehicle 2,7-2,9
# [4] = system: CVS strain of rabies virus; format: in vivo, in Swiss-Webster mice
# [5] = 10 mg/kg oral, 10 min post-oxotremorine
# [6] = 100 mg/kg oral, 30 min post-oxotremorine
compound,measurement,setting,value
"NC1C2C3CC4C5CC(C1C53)C42 (stereo not shown) [Compound 11, 4-amino-(D3)-trishomocubane]",ED50,[1],139 mg/kg
same,selectivity ratio,[2],7.2
same,LD50 at 168 h,[2],1000 mg/kg
"CC12C3CC4C5CC(C(C53)C1NCc1ccccc1)C42 (stereo not shown) [Compound 16, 4-Benzylamino-3-methyl-(D3)-trishomocubane]",ED50,[1],69.1 mg/kg
same,selectivity ratio,[2],> 14.5
same,LD50 at 168 h,[2],> 1000 mg/kg
same,Mean tremor score (± s.e.),[3]; [5],"1,4 ± 0,2"
same,Mean salivation score (± s.e.),[3]; [5],"1,3 ± 0,2"
"CNC1C2C3CC4C5CC(C42)C1(C)C53 (stereo not shown) [Compound 23, 3-methyl-4-methylamino-(D3)-trishomocubane]",Mean salivation score (± s.e.),"[3]; 30 mg/kg oral, 30 min post-oxotremorine","0,8 ± 0,2"
same,Mean tremor score (± s.e.),"[3]; 100 mg/kg oral, 10 min post-oxotremorine","1,2 ± 0,2"
"NC1C2C3CC4C5CC(C42)C1(c1ccccc1)C53 (stereo not shown) [Compound 19, 4-amino-3-phenyl-(D3)-trishomocubane]",ED50,[1],32.2 mg/kg
same,selectivity ratio,[2],25.6
same,LD50 at 168 h,[2],825 mg/kg
same,"Survival parameter (sum of days survived by six mice, up to 14 days each)","[4]; i.p. 10 mg/kg, 24 hours post inoculation, control 53 (compound 14), 59 (compound 19)",66
same,"Survival parameter (sum of days survived by six mice, up to 14 days each)","[4]; i.p. 10 mg/kg, 96 hours post inoculation, control 52 (compound 14), 61 (compound 19)",77
same,"Survival parameter (sum of days survived by six mice, up to 14 days each)","[4]; i.p. 21,5 mg/kg, 24 hours post inoculation, control 53 (compound 14), 59 (compound 19)",65
same,"Survival parameter (sum of days survived by six mice, up to 14 days each)","[4]; i.p. 21,5 mg/kg, 96 hours post inoculation, control 52 (compound 14), 61 (compound 19)",71
same,"Survival parameter (sum of days survived by six mice, up to 14 days each)","[4]; i.p. 46,4 mg/kg, 24 hours post inoculation, control 53 (compound 14), 59 (compound 19)",66
same,"Survival parameter (sum of days survived by six mice, up to 14 days each)","[4]; i.p. 46,4 mg/kg, 96 hours post inoculation, control 52 (compound 14), 61 (compound 19)",68
same,Mean salivation score (± s.e.),"[3]; 30 mg/kg oral, 20 min post-oxotremorine","1,0 ± 0,2"
"CC12C3CC4C5CC(C(C53)C1NCCc1ccccc1)C42 (stereo not drawn) [Compound 17, 4-(β-phenyl)ethylamino-3-methyl-(D3)-trishomocubane]",Mean tremor score (± s.e.),[3]; [6],"1,4 ± 0,2"
same,Mean salivation score (± s.e.),[3]; [6],"1,0 ± 0,3"
